Data taken from US20240208978A1, “IDH MUTANT INHIBITOR AND USE THEREOF” (WIGEN BIOMEDICINE TECHNOLOGY (SHANGHAI) CO., LTD., priority 2021, published 2024).

Experiments:
[1] = target: T1, mIDH1 R132H (Homo sapiens, UniProt O75874, R132H); assay: Detection of 2-HG in supernatant of U87-IDH1 R132H cells; format: cell-based; settings: U-87 MG, 72 h, U87MG cells overexpressing mIDH1 R132H, LC-MS-MS; for inhibition at 0.001 µM: 1 nM compound, read-out: Inhibition rate on 2-HG in the supernatant of U87-IDH R132H cells, 1 nM; for inhibition at 0.01 µM: 10 nM compound, read-out: Inhibition rate on 2-HG in the supernatant of U87-IDH R132H cells, 10 nM; for inhibition at 0.1 µM: 100 nM compound, read-out: Inhibition rate on 2-HG in the supernatant of U87-IDH R132H cells, 100 nM
T1 construct: expressed in transfected cells; host or cells: U87MG
Method: (§1) U87MG cells overexpressing the mIDH1 R132H mutation or HT1080 cells carrying IDH1 R132C were seeded in a 48-well plate and a 96-well plate at 50,000 cells/well and 10,000 cells/well, respectively. After the cells were incubated overnight for adhesion, the supernatants were removed. The cell culture media containing serially diluted compounds were added, and the cells were incubated for 72 h. After 72 h, the culture media were collected and diluted 10-fold and 20-fold with water, respectively. Acetonitrile was added to extract the metabolites. The 2-HG content in the culture media was analyzed by LC-MS-MS. The percentage inhibition and IC50 of the compounds on 2-HG in the supernatant were calculated as compared with the control group.

[2] = target: T2, IDH1 R132C (Homo sapiens, UniProt O75874, R132C); assay: Detection of 2-HG in supernatant of HT1080 cells carrying IDH1 R132C; format: cell-based; settings: 72 h, LC-MS-MS
T2 construct: endogenous in cells; host or cells: HT1080
Method: as §1

T1 sequence (O75874 whole entry R132H): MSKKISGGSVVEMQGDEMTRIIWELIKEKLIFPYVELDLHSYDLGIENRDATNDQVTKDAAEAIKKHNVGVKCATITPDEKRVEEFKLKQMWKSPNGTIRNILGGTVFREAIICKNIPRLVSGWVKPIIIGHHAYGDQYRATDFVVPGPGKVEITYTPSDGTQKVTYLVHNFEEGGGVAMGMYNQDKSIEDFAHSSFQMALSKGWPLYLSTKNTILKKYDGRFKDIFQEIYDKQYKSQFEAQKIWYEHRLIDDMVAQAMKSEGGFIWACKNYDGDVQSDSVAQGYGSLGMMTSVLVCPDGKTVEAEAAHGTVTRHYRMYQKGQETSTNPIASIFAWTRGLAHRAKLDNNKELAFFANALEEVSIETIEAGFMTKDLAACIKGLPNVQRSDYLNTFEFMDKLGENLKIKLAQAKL
T2 sequence (O75874 whole entry R132C): as the sequence (O75874 whole entry R132H) above, with H132C counted along it

inhibition at 0.001 µM [1]	inhibition at 0.01 µM [1]	inhibition at 0.1 µM [1]	IC50 [2]	Structure (SMILES)
< 30%	60 to 90%	> 90%	–	C=CC(=O)N1CCN(C(CC2CC2)c2ccc(C3(Nc4ncc5[nH]c(=O)n(C(C)C)c5n4)CC3)cc2)CC1 (centres unmarked) [Compound 40]
< 30%	60 to 90%	> 90%	–	C=CC(=O)N1CCN(C(CC2CC2)c2ccc(C3(Nc4ncc5[nH]c(=O)n(CC)c5n4)CC3)cc2)CC1 (centres unmarked) [Compound 39]
30 to 60%	> 90%	> 90%	–	C=CC(=O)N1CCN(C(CC(C)C)c2ccc([C@H](C)Nc3ncc4[nH]c(=O)n(C5CCC5)c4n3)cc2)CC1 (some centres unmarked) [Compound 31]
30 to 60%	> 90%	> 90%	–	C=CC(=O)N1CCN(C(CC)(CC)c2ccc([C@H](C)Nc3ncc4[nH]c(=O)n(CC)c4n3)cc2)CC1 [Compound 14]
60 to 90%	> 90%	> 90%	–	C=CC(=O)N1CCN(C(CC23CC(C2)C3)c2ccc([C@H](C)Nc3ncc4[nH]c(=O)n(C(C)C)c4n3)cc2)CC1 (some centres unmarked) [Compound 33]
30 to 60%	> 90%	> 90%	–	C=CC(=O)N1CCN(C(CC(C)C)c2ccc([C@H](C)Nc3ncc4[nH]c(=O)n(CC)c4n3)cc2)CC1 (some centres unmarked) [Compound 8]
30 to 60%	60 to 90%	> 90%	–	C=CC(=O)N(C)C1CCN(C(CC2CC2)c2ccc([C@H](C)Nc3ncc4[nH]c(=O)n(CC)c4n3)cc2)CC1 (some centres unmarked) [Compound 28]
< 30%	< 30%	60 to 90%	–	N#Cc1ccnc(N2C(=O)CC[C@H]2C(=O)N(c2cncc(F)c2)[C@H](C(=O)NC2CC(F)(F)C2)c2ccccc2Cl)c1 [Ivosidenib, ivosidenib, reference compound]
30 to 60%	60 to 90%	> 90%	–	C=CC(=O)N1CCN(C(CC(C)(C)C)c2ccc([C@H](C)Nc3ncc4[nH]c(=O)n(CC)c4n3)cc2)CC1 (some centres unmarked) [Compound 11]
30 to 60%	60 to 90%	> 90%	–	C=CC(=O)N1CCN(C(CC2CC2)c2ccc([C@H](C)Nc3ncc4[nH]c(=O)n(C)c4n3)cc2)CC1 (some centres unmarked) [Compound 2]
< 30%	60 to 90%	60 to 90%	–	C=CC(=O)N1CCN(C(CC2CC2)c2ccc([C@H](C)Nc3ncc4c(n3)n(CC)c(=O)n4C)cc2)CC1 (some centres unmarked) [Compound 37]
60 to 90%	60 to 90%	> 90%	–	C=CC(=O)NC1CN(C(CC2CC2)c2ccc([C@H](C)Nc3ncc4[nH]c(=O)n(CC)c4n3)cc2)C1 (some centres unmarked) [Compound 25]
< 30%	60 to 90%	> 90%	–	C=CC(=O)N(C)C1CN(C(CC2CC2)c2ccc([C@H](C)Nc3ncc4[nH]c(=O)n(CC)c4n3)cc2)C1 (some centres unmarked) [Compound 27]
30 to 60%	> 90%	> 90%	–	C=CC(=O)N1CCN(C(CC(C)C)c2ccc([C@H](C)Nc3ncc4[nH]c(=O)n(C5CCCC5)c4n3)cc2)CC1 (some centres unmarked) [Compound 32]
30 to 60%	> 90%	> 90%	–	C=CC(=O)N1CCN(C(CC2CC2)c2ccc([C@H](C)Nc3ncc4[nH]c(=O)n(C5CCC5)c4n3)cc2)CC1 (some centres unmarked) [Compound 5]
–	–	–	2.36 nM	C=CC(=O)N1CCN([C@H](CC2CC2)c2ccc([C@H](C)Nc3ncc4[nH]c(=O)n(C(C)C)c4n3)cc2)CC1 [Compound 3-2]
60 to 90%	60 to 90%	> 90%	–	C=CC(=O)NC1CCN(C(CC2CC2)c2ccc([C@H](C)Nc3ncc4[nH]c(=O)n(CC)c4n3)cc2)CC1 (some centres unmarked) [Compound 26]
< 30%	60 to 90%	60 to 90%	–	C=CC(=O)N1CCN(C(CC2CC2)c2ccc([C@H](C)Nc3ncc4c(n3)n(C(C)C)c(=O)n4C)cc2)CC1 (some centres unmarked) [Compound 38]
30 to 60%	> 90%	> 90%	–	C=CC(=O)N1CCN(C(CC23CC(C2)C3)c2ccc([C@H](C)Nc3ncc4[nH]c(=O)n(C5CCCC5)c4n3)cc2)CC1 (some centres unmarked) [Compound 36]

inhibition at 0.001 µM [1]	inhibition at 0.01 µM [1]	inhibition at 0.1 µM [1]	IC50 [2]	Structure (SMILES)
–	–	–	2.63 nM	C=CC(=O)N1CCN([C@@H](CC2CC2)c2ccc([C@H](C)Nc3ncc4[nH]c(=O)n(C5CCC5)c4n3)cc2)CC1 [Compound 5-1]
60 to 90%	> 90%	> 90%	–	C=CC(=O)N1CCN(C(CC23CC(C2)C3)c2ccc([C@H](C)Nc3ncc4[nH]c(=O)n(C5CC5)c4n3)cc2)CC1 (some centres unmarked) [Compound 34]
30 to 60%	60 to 90%	> 90%	–	C=CC(=O)N1CCC(N(C)C(CC2CC2)c2ccc([C@H](C)Nc3ncc4[nH]c(=O)n(CC)c4n3)cc2)CC1 (some centres unmarked) [Compound 23]
30 to 60%	60 to 90%	> 90%	–	C=CC(=O)N1CCC2(CC1)CN(C(CC1CC1)c1ccc([C@H](C)Nc3ncc4[nH]c(=O)n(CC)c4n3)cc1)C2 (some centres unmarked) [Compound 20]
30 to 60%	60 to 90%	> 90%	–	C=CC(=O)N1CC(N(C)C(CC2CC2)c2ccc([C@H](C)Nc3ncc4[nH]c(=O)n(CC)c4n3)cc2)C1 (some centres unmarked) [Compound 24]
30 to 60%	> 90%	> 90%	–	C=CC(=O)N1CCN(C(CC23CC(C2)C3)c2ccc([C@H](C)Nc3ncc4[nH]c(=O)n(CC)c4n3)cc2)CC1 (some centres unmarked) [Compound 12]
60 to 90%	> 90%	> 90%	–	C=CC(=O)N1CCN(C(CC(C)C)c2ccc([C@H](C)Nc3ncc4[nH]c(=O)n(C(C)C)c4n3)cc2)CC1 (some centres unmarked) [Compound 29]
30 to 60%	60 to 90%	> 90%	–	C=CC(=O)N1CC2(CCN(C(CC3CC3)c3ccc([C@H](C)Nc4ncc5[nH]c(=O)n(CC)c5n4)cc3)C2)C1 (some centres unmarked) [Compound 21]
30 to 60%	60 to 90%	> 90%	–	C=CC(=O)N1CCN(C(CC2CCC2)c2ccc([C@H](C)Nc3ncc4[nH]c(=O)n(CC)c4n3)cc2)CC1 (some centres unmarked) [Compound 10]
< 30%	60 to 90%	> 90%	–	C=CC(=O)N1CCN(C(CC2CC2)c2ccc([C@H](C)Nc3ncc4[nH]c(=O)n(C5CCCC5)c4n3)cc2)CC1 (some centres unmarked) [Compound 6]
30 to 60%	60 to 90%	> 90%	–	C=CC(=O)N1CCN(C(CC2(C)CC2)c2ccc([C@H](C)Nc3ncc4[nH]c(=O)n(CC)c4n3)cc2)CC1 (some centres unmarked) [Compound 13]
30 to 60%	> 90%	> 90%	–	C=CC(=O)N1CCN(C(CC23CC(C2)C3)c2ccc([C@H](C)Nc3ncc4[nH]c(=O)n(C5CCC5)c4n3)cc2)CC1 (some centres unmarked) [Compound 35]
30 to 60%	60 to 90%	> 90%	–	C=CC(=O)N1CCN(C(CC)c2ccc([C@H](C)Nc3ncc4[nH]c(=O)n(CC)c4n3)cc2)CC1 (some centres unmarked) [Compound 7]
30 to 60%	> 90%	> 90%	–	C=CC(=O)N1CCN(C(CC2CC2)c2ccc([C@H](C)Nc3ncc4[nH]c(=O)n(C5CC5)c4n3)cc2)CC1 (some centres unmarked) [Compound 4]
30 to 60%	> 90%	> 90%	–	C=CC(=O)N1CC2(C1)CN(C(CC1CC1)c1ccc([C@H](C)Nc3ncc4[nH]c(=O)n(CC)c4n3)cc1)C2 (some centres unmarked) [Compound 18]
30 to 60%	> 90%	> 90%	–	C=CC(=O)N1CCN(C2(c3ccc([C@H](C)Nc4ncc5[nH]c(=O)n(CC)c5n4)cc3)CCCC2)CC1 [Compound 15]
30 to 60%	> 90%	> 90%	–	C=CC(=O)N1CCN(C(CC(C)C)c2ccc([C@H](C)Nc3ncc4[nH]c(=O)n(C5CC5)c4n3)cc2)CC1 (some centres unmarked) [Compound 30]
30 to 60%	60 to 90%	> 90%	–	C=CC(=O)N1CCC2(C1)CN(C(CC1CC1)c1ccc([C@H](C)Nc3ncc4[nH]c(=O)n(CC)c4n3)cc1)C2 (some centres unmarked) [Compound 19]
60 to 90%	60 to 90%	> 90%	–	C=CC(=O)N1CC2(CCN(C(CC3CC3)c3ccc([C@H](C)Nc4ncc5[nH]c(=O)n(CC)c5n4)cc3)CC2)C1 (some centres unmarked) [Compound 22]

Structure (SMILES)	inhibition at 0.001 µM [1]	inhibition at 0.01 µM [1]	inhibition at 0.1 µM [1]	IC50 [2]
C=CC(=O)N1CCN(C2(c3ccc([C@H](C)Nc4ncc5[nH]c(=O)n(CC)c5n4)cc3)CCC(F)(F)CC2)CC1 [Compound 17]	30 to 60%	60 to 90%	> 90%	–
C=CC(=O)N1CCN(C2(c3ccc([C@H](C)Nc4ncc5[nH]c(=O)n(CC)c5n4)cc3)CCCCC2)CC1 [Compound 16]	30 to 60%	60 to 90%	> 90%	–
